Assay results published in PMC9576757, “A small molecule inhibitor of the UBE2F-CRL5 axis induces apoptosis and radiosensitization in lung cancer” (Signal Transduction and Targeted Therapy, 2022).
Residue numbers refer to the chain shown, from its start.

Key:
UBE2F [1] = biological target: T1, UBE2F (Homo sapiens, UniProt Q969M7); assay: E2 NEDD8 thioester assay, iFluor 680-NEDD8, SDS-PAGE fluorescence scan; assay type: biochemical
T1 construct: recombinant, pET-28a with His-SUMO tag cleaved by Ulp1 (un-tagged), expressed in E. coli Rosetta 2(DE3) pLysS
T1 sequence (Q969M7 1-185): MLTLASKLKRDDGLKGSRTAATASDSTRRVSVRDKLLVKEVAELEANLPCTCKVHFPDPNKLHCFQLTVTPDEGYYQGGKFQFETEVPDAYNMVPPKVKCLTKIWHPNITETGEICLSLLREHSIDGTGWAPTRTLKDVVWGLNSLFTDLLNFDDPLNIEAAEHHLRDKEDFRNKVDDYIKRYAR

UBE2F [2] = biological target: T2, UBE2F (Homo sapiens, UniProt Q969M7, K97A/K99A/R121A); assay: thermal shift assay with Western blotting; assay type: binding; conditions: V98 pocket mutant
T2 construct: recombinant, pET-28a with His-SUMO tag cleaved by Ulp1 (un-tagged), expressed in E. coli Rosetta 2(DE3) pLysS
T2 sequence (Q969M7 1-185 K97A/K99A/R121A): T1 sequence (Q969M7 1-185) with K97A, K99A, R121A

UBE2F [3] = biological target: T3, UBE2F (Homo sapiens, UniProt Q969M7, F153A/D154A/H165A); assay: thermal shift assay with Western blotting; assay type: binding; conditions: N152 pocket mutant
T3 construct: recombinant, pET-28a with His-SUMO tag cleaved by Ulp1 (un-tagged), expressed in E. coli Rosetta 2(DE3) pLysS
T3 sequence (Q969M7 1-185 F153A/D154A/H165A): T1 sequence (Q969M7 1-185) with F153A, D154A, H165A

UBE2F [4] = biological target: T1, UBE2F; assay: differential scanning fluorimetry, SYPRO orange; assay type: binding; conditions: tested as mesylate salt; 2 μM UBE2F, 1 °C/min from 25 to 95 °C; maximum of a dose series (printed 'up to')

IC50 (UBE2F [1]): ~49 µM | dTm (UBE2F [4]): ~ 4 °C
Structure (SMILES): Cc1ccc(C(=O)N2CCN(c3ccc(NC(=O)/C=C/c4c[nH]c5ncccc45)cc3)CC2)cc1 [iV26-9-10-4, HA-9104]
thermal stabilization (UBE2F [2]): V98 mutant was a little more thermo-stable and less stabilized by HA-9104 | thermal stabilization (UBE2F [3]): N152 mutant was very thermo-stable and largely resistant to HA-9104-induced stabilization
